Measurements reported in patent US20090318555A1, “Treatment of Vertigo with Acetyl-L-Leucine” (PIERRE FABRE MEDICAMENT, priority 2006, published 2009).

What was measured:
[1] = system: unilateral vestibular neurectomy model; assay: Overall functional restoration in animals having undergone unilateral vestibular neurectomy; format: in vivo, cat; settings: present experimental model
Excerpt: The selected experimental model and protocol are recognized in the field of neurosensory research as targeting the study of disorders associated with vertigo crises. The cats undergo a unilateral vestibular neurectomy on the left side. The animals are divided into four groups comprising three treatment groups and one untreated control group, as follows: • control group (five cats), untreated after vestibular lesion but receiving a placebo, • experimental group one (four cats), treated with the racemic compound (acetyl-DL-leucine), • experimental group two (four cats), treated with the first enantiomer (acetyl-L-leucine), • experimental group three (four cats), treated with the second enantiomer (acetyl-D-leucine). Pharmacological treatments for experimental groups one, two and three begin on the day of the lesion and continue until complete recovery (45 days for untreated control animals). In these three lesioned groups, treatment is administered by intravenous (IV) route during the first three days post-lesion and is followed by oral route (OR) treatment until recovery is complete. The doses administered are 30 mg/kg/day IV then 60 mg/kg/day OR for the racemate, and 15 mg/kg/day IV then 30 mg/kg/day OR for each of the two enantiomers. For the oral route, the substance is mixed with food; for the IV route, injection takes place after local anesthesia.

[2] = system: unilateral vestibular neurectomy model in the cat; assay: Support polygon surface area (postural syndrome), Example 1; format: in vivo; settings: for return of support polygon surface area to normal / support polygon surface area compared to control animals: 15 mg/kg/day IV 3 days then 30 mg/kg/day oral; for support polygon surface area compared to control animals: post-lesion (D isomer: two days post-lesion and evolution)
Experimental: The cats undergo a unilateral vestibular neurectomy on the left side. Surgery is performed using a surgical microscope, under rigorously aseptic conditions, according to a translabyrinthine approach. After incision of the tissues located behind the left auricle of the animal, an opening is made in the tympanic bulla using a diamond drill to give access to the inner ear. The labyrinth cavity is approached by an opening created above the oval window. This precisely-made opening exposes cranial […] which are sectioned at the postganglionic level. The internal auditory meatus is obturated with a cicatrizing gelatin sponge and the surface tissues are restitched. The animals are given analgesics for 48 hours and antibiotics for five days postoperative. The animals are divided into four groups comprising three treatment groups and one untreated control group, as follows: • control group (five cats), untreated after vestibular lesion but receiving a placebo, • experimental group one (four cats), treated with the racemic compound (acetyl-DL-leucine), • experimental group two (four cats), treated with the first enantiomer (acetyl-L-leucine), • experimental group three (four cats), treated with the second enantiomer (acetyl-D-leucine). Pharmacological treatments for experimental groups one, two and three begin on the day of the lesion and continue until complete recovery (45 days for untreated control animals). In these three lesioned groups, treatment is administered by intravenous (IV) route during the first three days post-lesion and is followed by oral route (OR) treatment until recovery is complete. The doses administered are 30 mg/kg/day IV then 60 mg/kg/day OR for the racemate, and 15 mg/kg/day IV then 30 mg/kg/day OR for each of the two enantiomers. For the oral route, the substance is mixed with food; for the IV route, injection takes place after local anesthesia. Support polygon surface area is a good indicator of the degree of postural stability in the cat. In general, it is quite small in the normal animal (roughly 50 cm^2). It increases considerably, by four to eight times, after a unilateral vestibular lesion. This increase in polygon surface area reflects tonic asymmetries in the extensor and flexor muscles of the fore and hind feet and the loss of certain static equilibrium reflexes (Magnus reflexes, for example). Thus, postoperative evolution of this indicator is a good measure of the animal's static equilibrium capacity. In addition, this indicator has prognostic value with respect to dynamic equilibrium performance, as measured by the rotating beam test. Support polygon surface area measurements are taken with the animal in an upright position on all four legs, at rest, using an automated three-dimensional movement analysis system with virtual markers (Codamotion optoelectronic system coupled with a SIMI alignment device). Surface area measurements (in cm^2) taken during the post-lesion period are standardized with respect to pre-lesion values. Thus, each animal acts as its own control (unit equivalent). This method enables direct between-group comparisons and within-group averaging.

[3] = system: unilateral vestibular neurectomy in the cat; assay: Compensation of vestibular deficits (support polygon), Example 2; format: in vivo; settings: IV during first three days post-lesion
Experimental: The experiment involves 18 cats from the breeder IFA-CREDO (France). The cats undergo a unilateral vestibular neurectomy of the left side, as in example 1. The animals are divided into three groups comprising one group treated with racemic coumpound (acetyl-DL-leucine) (groups 1) and two treated with acetyl-L-leucine (groups 2 and 3), as follows: • experimental group one (six cats), treated after vestibular lesion with the racemic compound (acetyl-DL-leucine) at 30 mg/kg per day, • experimental group two (six cats), treated after vestibular lesion with the L enantiomer (acetyl-L-leucine) at 15 mg/kg per day, • experimental group three (six cats), treated after vestibular lesion with the L enantiomer (acetyl-L-leucine) at 7.5 mg/kg per day, Pharmacological treatments for experimental groups 1 to 3 begin on the day of the lesion. Treatment is administered by intravenous (IV) route during the first three days post-lesion.

[4] = system: unilateral vestibular neurectomy model in the cat; assay: Kinetic equilibrium functioning, rotating beam test, Example 1; format: in vivo; settings: for compensation for kinetic equilibrium compared to control animals / return to maximum performance (MP): rotating beam, 15 mg/kg/day IV 3 days then 30 mg/kg/day oral
Experimental: The cats undergo a unilateral vestibular neurectomy on the left side.
Surgery is performed using a surgical microscope, under rigorously aseptic conditions, according to a translabyrinthine approach. After incision of the tissues located behind the left auricle of the animal, an opening is made in the tympanic bulla using a diamond drill to give access to the inner ear. The labyrinth cavity is approached by an opening created above the oval window. This precisely-made opening exposes cranial […] which are sectioned at the postganglionic level. The internal auditory meatus is obturated with a cicatrizing gelatin sponge and the surface tissues are restitched. The animals are given analgesics for 48 hours and antibiotics for five days postoperative.
The animals are divided into four groups comprising three treatment groups and one untreated control group, as follows: • control group (five cats), untreated after vestibular lesion but receiving a placebo, • experimental group one (four cats), treated with the racemic compound (acetyl-DL-leucine), • experimental group two (four cats), treated with the first enantiomer (acetyl-L-leucine), • experimental group three (four cats), treated with the second enantiomer (acetyl-D-leucine).
Pharmacological treatments for experimental groups one, two and three begin on the day of the lesion and continue until complete recovery (45 days for untreated control animals). In these three lesioned groups, treatment is administered by intravenous (IV) route during the first three days post-lesion and is followed by oral route (OR) treatment until recovery is complete. The doses administered are 30 mg/kg/day IV then 60 mg/kg/day OR for the racemate, and 15 mg/kg/day IV then 30 mg/kg/day OR for each of the two enantiomers. For the oral route, the substance is mixed with food; for the IV route, injection takes place after local anesthesia.
The rotating beam test, as described by Xerri and Lacour (Xerri C, Lacour M: Compensation for postural and kinetic deficits following unilateral vestibular neurectomy in the cat. Role of sensory-motor activity [Compensation des déficits posturaux et cinétiqtues après neurectomie vestibulaire unilatérale chez le chat. Rôle de l'activité sensori-motrice], Acta Otolaryngol (Stockh) (1980) [in French], 90, 414-424) makes it possible to quantify kinetic equilibrium functioning deficits and recovery as a function of postoperative time.
Two compartments are connected by a cylindrical beam 3 m in length and 12 cm in diameter, placed 1.2 m above the floor. The beam can turn around its central axis with linear tangential velocities varying from 0 m/min to 37 m/min. Before the unilateral vestibular lesion (preoperative period), the cats are conditioned to move along this beam. Their maximum performance (MP), which corresponds to the highest beam rotation velocity not causing the animal to fall, is determined for four consecutive tests. In general, eight to 12 daily training sessions of approximately one hour are adequate for the animal to reach its MP. Inter-animal MP variations are relatively small (extreme values recorded: 27 m/min to 37 m/min; mean: 33 m/min; standard deviation: 2.08 m/min). For each cat, MP values obtained following unilateral vestibular neurectomy are expressed as a percentage of MP recorded at the end of training during the preoperative period.

[5] = system: unilateral vestibular neurectomy model in the cat; assay: Post-lesion horizontal spontaneous vestibular nystagmus, Example 1; format: in vivo; settings: for nystagmus disappearing / nystagmus frequency compared to control animals: 15 mg/kg/day IV 3 days then 30 mg/kg/day oral
Experimental: The cats undergo a unilateral vestibular neurectomy on the left side. Surgery is performed using a surgical microscope, under rigorously aseptic conditions, according to a translabyrinthine approach. After incision of the tissues located behind the left auricle of the animal, an opening is made in the tympanic bulla using a diamond drill to give access to the inner ear. The labyrinth cavity is approached by an opening created above the oval window. This precisely-made opening exposes cranial […] which are sectioned at the postganglionic level. The internal auditory meatus is obturated with a cicatrizing gelatin sponge and the surface tissues are restitched. The animals are given analgesics for 48 hours and antibiotics for five days postoperative. The animals are divided into four groups comprising three treatment groups and one untreated control group, as follows: • control group (five cats), untreated after vestibular lesion but receiving a placebo, • experimental group one (four cats), treated with the racemic compound (acetyl-DL-leucine), • experimental group two (four cats), treated with the first enantiomer (acetyl-L-leucine), • experimental group three (four cats), treated with the second enantiomer (acetyl-D-leucine). Pharmacological treatments for experimental groups one, two and three begin on the day of the lesion and continue until complete recovery (45 days for untreated control animals). In these three lesioned groups, treatment is administered by intravenous (IV) route during the first three days post-lesion and is followed by oral route (OR) treatment until recovery is complete. The doses administered are 30 mg/kg/day IV then 60 mg/kg/day OR for the racemate, and 15 mg/kg/day IV then 30 mg/kg/day OR for each of the two enantiomers. For the oral route, the substance is mixed with food; for the IV route, injection takes place after local anesthesia. Recovery of oculomotor functioning is quantified by measuring post-operative regression of spontaneous vestibular nystagmus to light. This nystagmus is recorded in the horizontal plane by a video camera system that records eye movements (SIMI system). Nystagmus frequency is determined by the number of beats per unit time (10 seconds). Recordings are made daily until spontaneous nystagmus disappears.

[6] = system: postural and kinetic deficit compensation in lesioned cat; settings: both after IV 28 mg/kg first three days post-lesion and after (IO) 28 mg/kg first 30 days postoperative, vs untreated lesioned animals; cited from earlier work
[7] = acetyl-L-leucine used in a 1/2 dose of the racemate
[8] = cat, 15 mg/kg/day IV then 30 mg/kg/day oral

SMILES	improvement / restorative activity compared to placebo [1]	activity on compensation for postural deficits relative to acetyl-DL-leucine [2, 7]	return of support polygon surface area to normal ([2]; cat)	support polygon surface area compared to control animals ([2]; cat)	restoration of postural, locomotor and oculomotor functions deteriorated by a vestibular lesion [3]	activity on compensation for kinetic equilibrium relative to acetyl-DL-leucine [4, 7]	compensation for kinetic equilibrium compared to control animals ([4]; cat)	return to maximum performance (MP) ([4]; cat)	activity on compensation for ocular nystagmus relative to acetyl-DL-leucine [5, 7]	nystagmus disappearing ([5]; cat)	nystagmus frequency compared to control animals ([5]; cat)	beneficial effect on support polygon parameter [2, 8]	beneficial effect on kinetic equilibrium parameter [4, 8]	beneficial effect on nystagmus parameter [5, 8]	shortening of the vestibular compensation time constant [6]
CC(=O)N[C@@H](CC(C)C)C(=O)O [acetyl-L-leucine]	restorative activity is only provided by the acetyl-L-leucine isomer	greater than or equal to that of acetyl-DL-leucine	16 days post-lesion	significantly smaller	efficiently restore	greater than or equal to that of acetyl-DL-leucine	much more rapid than in the control animals	18 days post-lesion	greater than or equal to that of acetyl-DL-leucine	four	lower				
CC(=O)N[C@H](CC(C)C)C(=O)O [acetyl-D-leucine]	does not provide any improvement compared to a placebo		40 days post-lesion	identical to that observed in the control animals			identical to that observed in the control animals	42 days post-lesion		eight	identical to that of nystagmus observed in the control animals	does not have any beneficial effect	does not have any beneficial effect	does not have any beneficial effect	
CC(=O)NC(CC(C)C)C(=O)O (racemic) [acetyl-DL-leucine]															50%
